Results on six compounds are retold here after patent EP3829579B1, “1,3,8-TRIAZASPIRO COMPOUNDS AND THEIR USE AS MEDICAMENTS FOR THE TREATMENT OF REPERFUSION INJURY” (Maria Cecilia Hospital S.p.A., priority 2018, dated 2020).

Each structure is given as a SMILES string.

In data set [1] the test system is mPTP. The data set can be described thus: mitochondrial swelling assay (absorbance at 540 nm, Ca2+ stimulation). It is filed as biochemical. To be noted: mitochondria isolated from mouse liver, monitored for 10 minutes. An excerpt:
The data were obtained by recording the absorbance changes at 540 nm at the tenth minute of measurement, and subsequently converted to a percentage. Black bar: untreated and unstimulated mitochondria; black control bar: untreated and Ca2+ stimulated mitochondria; dark grey bar: pre-treatment with CsA and stimulation with Ca2+; light bar: pre-treatment with RR and stimulation with Ca2+; first white bar from the top: treatment with compound 1 and stimulation with Ca2+; white bars: pre-treatment with the compounds of the invention and stimulation with Ca2+. […] The subcellular localization of compound 1 was studied by HPLC-HRMS analysis of samples from different cellular compartments, before and after treatment with the compound. […] The grey region of the HPLC spectrum corresponds to a single mass peak at [M+1]+ m/z of 386.1534 (lower panel, [M+H]+ calculated for compound 1 = 386.1533). […] The grey band of the HPLC spectrum corresponds to a mixture of mass peaks detected through the HRMS analysis (lower panel). C: HPLC-HRMS profile of the mitochondrial fraction isolated from cells pre-treated with compound 1 which clearly indicates the presence of the compound with an HPLC band at a retention time of 8.2 min (upper panel). The grey area of the signal corresponds to a mixture of mass peaks (lower panel) among which [M+1]+ m/z of 386.1534, which identifies the undetectable compound 1 in the corresponding untreated fraction (panel B). […] A: Content of mitochondrial ATP in living cells under basal conditions, evaluated based on the luciferase-luciferin protocol. B: Mitochondrial ATP production following stimulation by a Ca2+ dependent agonist. "Histamine" indicates stimulus with histamine. C: MTT cell viability assay after 24h, 48h and 72h of treatment of live cells with compounds of Formula (I) at different concentrations. In particular, black bar: cells treated with vehicle; dotted bars: compound at the concentration of 1 µM; bars with small black and white squares: compound at a concentration of 5 µM; bars with large black and white squares: compound at a concentration of 10 µM. A standardization was carried out with respect to the vehicle. […] A: Diagram depicting an experiment on an isolated rat heart by the Langendorff system. B: Coronary artery perfusion pressure (CPP) recorded on rat heart in conditions of stabilization, ischemia and reperfusion. C: Pressure developed by the left ventricle (LVPdp) recorded under the same conditions as B. D: End-diastolic pressure recorded in the same conditions as B and C. […]
Mitochondria isolated from mouse liver were checked for purity (Figure 3A) and functionality thereof, and then stimulated with Ca^2+; the decrease in absorbance at 540 nm, indicative of mitochondrial swelling, was monitored for 10 minutes.

Data set [2] relates to live cells. The data set can be described thus: MTT cell viability assay. It is filed as cell-based. To be noted: micromolar concentrations (1, 5, 10 µM); for reduction of MTT compared to the control: 24h and 48h; for effect on cell viability (MTT): after 72h. An excerpt:
(§1) The data were obtained by recording the absorbance changes at 540 nm at the tenth minute of measurement, and subsequently converted to a percentage. Black bar: untreated and unstimulated mitochondria; black control bar: untreated and Ca2+ stimulated mitochondria; dark grey bar: pre-treatment with CsA and stimulation with Ca2+; light bar: pre-treatment with RR and stimulation with Ca2+; first white bar from the top: treatment with compound 1 and stimulation with Ca2+; white bars: pre-treatment with the compounds of the invention and stimulation with Ca2+. […] The subcellular localization of compound 1 was studied by HPLC-HRMS analysis of samples from different cellular compartments, before and after treatment with the compound. […] The grey region of the HPLC spectrum corresponds to a single mass peak at [M+1]+ m/z of 386.1534 (lower panel, [M+H]+ calculated for compound 1 = 386.1533). […] The grey band of the HPLC spectrum corresponds to a mixture of mass peaks detected through the HRMS analysis (lower panel). C: HPLC-HRMS profile of the mitochondrial fraction isolated from cells pre-treated with compound 1 which clearly indicates the presence of the compound with an HPLC band at a retention time of 8.2 min (upper panel). The grey area of the signal corresponds to a mixture of mass peaks (lower panel) among which [M+1]+ m/z of 386.1534, which identifies the undetectable compound 1 in the corresponding untreated fraction (panel B). […] A: Content of mitochondrial ATP in living cells under basal conditions, evaluated based on the luciferase-luciferin protocol. B: Mitochondrial ATP production following stimulation by a Ca2+ dependent agonist. "Histamine" indicates stimulus with histamine. C: MTT cell viability assay after 24h, 48h and 72h of treatment of live cells with compounds of Formula (I) at different concentrations. […] B: Coronary artery perfusion pressure (CPP) recorded on rat heart in conditions of stabilization, ischemia and reperfusion. C: Pressure developed by the left ventricle (LVPdp) recorded under the same conditions as B. D: End-diastolic pressure recorded in the same conditions as B and C. […]
(§2) Compounds 5c, 6g and 10 resulted to be very potent in inhibiting mPTP in the in vitro tests. In order to identify any side effects in the use of these compounds in living cells that could exclude their future development in therapy, and given the crucial role of the C subunit of the ATP synthase in energy production, two important parameters were evaluated, such as cell viability and mitochondrial ATP content, in basal conditions and following Ca^2+-dependent stimulus (Figure 5A-C).
A general note: Formazan colour is commonly taken as a measure of viable cells.

The subject of data set [3] is ATP synthesis. The data set can be described thus: luciferin-luciferase assay of mitochondrial ATP. Conditions: living cells, basal conditions and following Ca2+-dependent stimulus. It is filed as cell-based.
Text: The data were obtained by recording the absorbance changes at 540 nm at the tenth minute of measurement, and subsequently converted to a percentage. Black bar: untreated and unstimulated mitochondria; black control bar: untreated and Ca2+ stimulated mitochondria; dark grey bar: pre-treatment with CsA and stimulation with Ca2+; light bar: pre-treatment with RR and stimulation with Ca2+; first white bar from the top: treatment with compound 1 and stimulation with Ca2+; white bars: pre-treatment with the compounds of the invention and stimulation with Ca2+. […] The subcellular localization of compound 1 was studied by HPLC-HRMS analysis of samples from different cellular compartments, before and after treatment with the compound. […] The grey region of the HPLC spectrum corresponds to a single mass peak at [M+1]+ m/z of 386.1534 (lower panel, [M+H]+ calculated for compound 1 = 386.1533). […] The grey band of the HPLC spectrum corresponds to a mixture of mass peaks detected through the HRMS analysis (lower panel). C: HPLC-HRMS profile of the mitochondrial fraction isolated from cells pre-treated with compound 1 which clearly indicates the presence of the compound with an HPLC band at a retention time of 8.2 min (upper panel). The grey area of the signal corresponds to a mixture of mass peaks (lower panel) among which [M+1]+ m/z of 386.1534, which identifies the undetectable compound 1 in the corresponding untreated fraction (panel B). […] A: Content of mitochondrial ATP in living cells under basal conditions, evaluated based on the luciferase-luciferin protocol. B: Mitochondrial ATP production following stimulation by a Ca2+ dependent agonist. "Histamine" indicates stimulus with histamine. C: MTT cell viability assay after 24h, 48h and 72h of treatment of live cells with compounds of Formula (I) at different concentrations. In particular, black bar: cells treated with vehicle; dotted bars: compound at the concentration of 1 µM; bars with small black and white squares: compound at a concentration of 5 µM; bars with large black and white squares: compound at a concentration of 10 µM. A standardization was carried out with respect to the vehicle. […] A: Diagram depicting an experiment on an isolated rat heart by the Langendorff system. B: Coronary artery perfusion pressure (CPP) recorded on rat heart in conditions of stabilization, ischemia and reperfusion. C: Pressure developed by the left ventricle (LVPdp) recorded under the same conditions as B. D: End-diastolic pressure recorded in the same conditions as B and C. E: TUNEL apoptotic assay for the evaluation of the cardioprotective effect in cardiomyocytes of the heart.**:p value<0.01; ****:p value<0.0001.
as §2

For data set [4], the system named is release of cytochrome C (Cyt.C) from the mitochondria. Put plainly: detection of cytochrome c in the mitochondrial fraction under Ca2+-dependent stress. Conditions: Ca2+-dependent stress conditions. Format: cell-based.
Data set [5] relates to rat isolated heart. Put plainly: isolated rat heart ischemia-reperfusion (Langendorff system), with TUNEL assay. To be noted: ex vivo. It is filed as in vivo.
Text: as §1
Considering the potential of the inhibitors claimed herein in relation to: i) ability to desensitize the opening of mPTP; ii) ability to protect against cell death by inhibiting the release of Cyt.C; iii) ability to preserve cell viability, and iv) mitochondrial ATP content, the effects of compound 10 were studied in an animal model of cardiac ischemia-reperfusion. […] At the end of the procedure, the hearts were also analyzed for cell death by terminal deoxynucleotidyl transferase dUTP nick-end labelling (TUNEL) assay.

Data set [6] deals with mPTP. The data set can be described thus: cobalt-calcein assay of Ca2+-induced mPTP opening in HeLa cells (ionomycin stimulation). It is filed as cell-based. To be noted: pre-treatment 1 µM, assessed by the kinetics slope.
A short description of data set [7]: subcellular fractionation with HPLC-HRMS detection (subcellular localization). It is filed as cell-based. To be noted: cells pre-treated with compound, mitochondria, cytosol and endoplasmic reticulum fractions. An excerpt:
The data were obtained by recording the absorbance changes at 540 nm at the tenth minute of measurement, and subsequently converted to a percentage. Black bar: untreated and unstimulated mitochondria; black control bar: untreated and Ca2+ stimulated mitochondria; dark grey bar: pre-treatment with CsA and stimulation with Ca2+; light bar: pre-treatment with RR and stimulation with Ca2+; first white bar from the top: treatment with compound 1 and stimulation with Ca2+; white bars: pre-treatment with the compounds of the invention and stimulation with Ca2+. […] The grey region of the HPLC spectrum corresponds to a single mass peak at [M+1]+ m/z of 386.1534 (lower panel, [M+H]+ calculated for compound 1 = 386.1533). […] The grey band of the HPLC spectrum corresponds to a mixture of mass peaks detected through the HRMS analysis (lower panel). […] A: Content of mitochondrial ATP in living cells under basal conditions, evaluated based on the luciferase-luciferin protocol. […] B: Coronary artery perfusion pressure (CPP) recorded on rat heart in conditions of stabilization, ischemia and reperfusion. C: Pressure developed by the left ventricle (LVPdp) recorded under the same conditions as B. D: End-diastolic pressure recorded in the same conditions as B and C. […]

[8] abbreviates: 10 µM constant-volume perfusion during the first 10 minutes of reperfusion, 30 minutes ischemia, 1 hour reperfusion.

In the case of `O=C1NCN(c2ccccc2)C12CCN(S(=O)(=O)c1ccc(Cl)s1)CC2` [compound 10, 8-((5-chlorotiophen-2-yl)sulfonyl)-1-phenyl-1,3,8-triazaspiro[4.5]decan-4-one], the “inhibition of Ca2+-induced mPTP opening (mitochondrial swelling, decrease in absorbance at 540 nm)” value in data set [1] was “significantly more performing than compound 1”. Further, in data set [2], the “reduction of MTT compared to the control” value is reported as “did not induce a significant reduction” and the “effect on cell viability (MTT)” value was “some negative effect”. Moreover, the “proton flow and ATP synthesis / ATP levels” value in data set [3] is “did not reduce ATP levels”. The “release of Cyt.C from the mitochondria” value in data set [4] is recorded as “prevent the release of Cyt.C”. In data set [5] (setting [8]), the “coronary perfusion pressure (CPP)” value is listed as “decrease”, the “diastolic pressure (EDP)” value is recorded as “decrease” and the “diastolic pressure of the left ventricle (LVEDP)” value is on record as “increased”. Also, the “percentage of cardiomyocytes positive for TUNEL (apoptotic)” value in data set [5] (10µM, hearts at the end of the procedure, 64% positive without compound) is on record as “significantly reduced”.
In the case of `N.N.N.N.N.N.N.N.N.N.N.N.N.N.[Cl-].[Cl-].[Cl-].[Cl-].[Cl-].[Cl-].[O-2].[O-2].[Ru+3].[Ru+3].[Ru+4]` [RR, Red Ruthenium, reference compound], the “inhibition of Ca2+-induced mPTP opening (mitochondrial swelling, decrease in absorbance at 540 nm)” value in data set [1] is “prevented”.
Take `CC[C@H]1/C=C/C=C/C[C@@H](C)[C@H](O)[C@@](C)(O)C(=O)[C@@H](C)[C@H](O)[C@@H](C)C(=O)[C@@H](C)[C@H](O)[C@@H](C)/C=C/C(=O)O[C@@H]2[C@H](C)[C@H](CC1)O[C@]1(CC[C@H](C)[C@H](C[C@@H](C)O)O1)[C@H]2C` [Oligomycin, reference compound]: in data set [3], the “proton flow and ATP synthesis / ATP levels” value is listed as “significantly inhibited”.
With `O=C1NCN(c2cccc(C(F)(F)F)c2)C12CCN(Cc1ccccc1)CC2` [compound 6g, 8-benzyl-1-(3-(trifluoromethyl)phenyl)-1,3,8-triazaspiro[4.5]decan-4-one], the “inhibition of Ca2+-induced mPTP opening (mitochondrial swelling, decrease in absorbance at 540 nm)” value in data set [1] is recorded as “significantly more performing than compound 1”. In data set [3], the “proton flow and ATP synthesis / ATP levels” value is reported as “did not reduce ATP levels”. In data set [4], the “release of Cyt.C from the mitochondria” value was “prevent the release of Cyt.C”.
`O=C1N=CN(c2ccc(Cl)cc2)C12CCN(Cc1ccccc1)CC2` [compound 5c, 8-benzyl-1-(4-chlorophenyl)-1,3,8-triazaspiro[4.5]dec-2-en-4-one]: in data set [1], the “inhibition of Ca2+-induced mPTP opening (mitochondrial swelling, decrease in absorbance at 540 nm)” value is “significantly more performing than compound 1”. Further, in data set [2], the “reduction of MTT compared to the control” value is given as “did not induce a significant reduction” and the “effect on cell viability (MTT)” value was “some negative effect”. Besides, the “proton flow and ATP synthesis / ATP levels” value in data set [3] is recorded as “did not reduce ATP levels”. For the same compound, the “release of Cyt.C from the mitochondria” value in data set [4] is reported as “prevent the release of Cyt.C”.
Turning to `Cc1ccc(S(=O)(=O)N2CCC3(CC2)C(=O)NCN3c2ccccc2)cc1` [compound 1, 1-phenyl-8-tosyl-1,3,8-triazaspiro[4.5]decan-4-one], the “desensitization of the mPTP opening” value in data set [6] is reported as “about 50%”. In data set [7], the subcellular localization entry is reported as “selective accumulation of the compound in the mitochondria”. In addition, the “proton flow and ATP synthesis / ATP levels” value in data set [3] is “significantly inhibited”.
